Literature values as cited in patent publication US6117869A, “Compounds for and methods of inhibiting matrix metalloproteinases” (Warner-Lambert Company, priority 1999, dated 2000).

System: experimental allergic encephalomyelitis (EAE)
Details: dose dependent; cited from earlier work

For CNC(=O)[C@H](Cc1c[nH]c2ccccc12)NC(=O)[C@@H](CC(=O)NO)CC(C)C [GM6001], the “development or clinical expression of EAE” value is given as “suppressed the development or reversed the clinical expression”.
